Where two headings read alike, the source gives them in different places. Where a SMILES comes first, the peptide text is derived from it. [ ]: non-standard residue; d: D form. Arg(Me) = CNC(=N)NCCC[C@H](N)C(=O)O; Hyp = O=C(O)[C@@H]1C[C@@H](O)CN1; azaGly = NNC(=O)O
Columns and labels:
human KISS1R = human KISS1R (Homo sapiens, UniProt Q969F8); experiment: Intracellular Ca2+ mobilization (fluorometric imaging plate reader), human KISS1R; format: cell-based; set-up: expressed in transfected cells; host or cells: Chinese hamster ovary dihydrofolate reductase negative cells
Sequence of human KISS1R (Q969F8 whole entry): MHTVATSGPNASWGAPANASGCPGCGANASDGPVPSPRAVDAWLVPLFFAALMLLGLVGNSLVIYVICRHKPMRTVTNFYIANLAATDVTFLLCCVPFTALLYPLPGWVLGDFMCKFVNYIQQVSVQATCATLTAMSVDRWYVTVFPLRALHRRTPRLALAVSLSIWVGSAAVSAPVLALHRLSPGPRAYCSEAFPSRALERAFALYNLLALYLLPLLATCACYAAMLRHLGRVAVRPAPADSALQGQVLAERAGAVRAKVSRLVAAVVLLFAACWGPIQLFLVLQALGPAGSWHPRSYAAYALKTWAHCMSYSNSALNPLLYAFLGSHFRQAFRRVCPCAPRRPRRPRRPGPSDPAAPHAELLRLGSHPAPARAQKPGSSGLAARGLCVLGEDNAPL
Description: The effects of API-MA on intracellular Ca^2+ mobilization in KISS1R-expressing recombinant cells were evaluated by performing the fluorometric imaging plate reader assay.

[1] = Tissue distribution and excretion of radioactivity in rats; format: in vivo
Description: The concentrations of the radioactivity in the tissues of male albino and pigmented rats were investigated after a single IV administration of [^14C]API-MA at 1.049 mg/kg (1 mg/kg API-FB). […] The radioactivity, measured in albino rats, was rapidly eliminated from all of the tissues after IV administration of API-MA.
The urinary, fecal, biliary, and expiratory excretion of the dosed radioactivity was investigated after a single SC or IV administration of [^14C]API-MA at 1.049 mg/kg (1 mg/kg API-FB) to male Sprague-Dawley rats in two studies.

[2] = tested on: 127 enzyme and radio ligand binding assays; experiment: Series of 127 enzyme and radio ligand binding assays; settings: 10 μmol/L
[3] = 1-month depot PK, prostate cancer patients; format: in vivo, human; settings: for AUC(0-t) / Cmax / Tmax: male, human, plasma; for AUC(0-t): sc; for AUC(0-t) / Cmax / Tmax / Tlqc: prostate cancer patients; for AUC(0-t) / Cmax / Tlqc: geometric mean; for Tmax: read-out: Tmax (median)
Description: Another study enrolled prostate cancer patients who had completed their primary treatment for prostate cancer at least 6 months prior to screening and were either on GnRH therapy or were potential future candidates for GnRH therapy. Nine patients were enrolled, three in each dose group (6, 12, and 24 mg). All were white men. Patients received API-MA as a single 1-month depot SC injection into the abdomen that was intended to initiate both a high-burst release of API-MA and rapid stimulation of hypothalamic-pituitary-gonadal-axis, and was expected to suppress testosterone. Overall, 4 of 9 patients received concomitant GnRH therapy.

[4] = rat, in vivo; cited from earlier work
[5] = rats, IV 1 mg/kg API-FB, 24 hours postdose, first study
[6] = rats, IV 1 mg/kg API-FB, 48 hours postdose, second study
[7] = rats, SC 1 mg/kg API-FB, 24 hours postdose, first study
[8] = rats, SC 1 mg/kg API-FB, 48 hours postdose, second study

With `CC(=O)O.CNC(=N)NCCC[C@H](NC(=O)[C@H](CC(C)C)NC(=O)NNC(=O)[C@H](Cc1ccccc1)NC(=O)[C@@H](NC(=O)[C@H](CC(N)=O)NC(=O)[C@@H]1C[C@@H](O)CN1C(=O)[C@@H](Cc1ccc(O)cc1)NC(C)=O)[C@@H](C)O)C(=O)N[C@@H](Cc1c[nH]c2ccccc12)C(N)=O` [API-MA, 2-(N-Acetyl-D-tyrosyl-trans-4-hydroxy-L-prolyl-Lasparaginyl-L-threonyl-L-phenylalanyl)-hydrazinocarbonyl-L-leucyl-Nω-methyl-L-arginyl-L-tryptophanamide monoacetate] (Ac-[dY][Hyp]NTF[azaGly]L[Arg(Me)]W-NH2) the EC50 (human KISS1R) was 0.266 nM, the “Ratio of EC50 of API-MA to kisspeptin (45-54)” value (human KISS1R; human KISS1R) was 0.85 and the “Tissue distribution of radioactivity” value ([1]; male albino and pigmented rats, single IV 1 mg/kg API-FB) was “distributed widely into the tissues”. For the same molecule, the “Affinity for melanin in vivo” value ([1]; pigmented rats, single IV 1 mg/kg API-FB) was “little affinity for melanin in vivo”, the “Excretion of radioactivity in bile” value [1, 5] was 20.7% and the “Excretion of radioactivity in feces” value [1, 5] was 0.3%. The “Excretion of radioactivity in urine” value [1, 5] was 76.6%, the “Excretion of radioactivity in feces” value [1, 6] was 28.2% and the “Excretion of radioactivity in urine” value [1, 6] was 70.0%. The “Excretion of radioactivity in bile” value [1, 7] was 15.5%, the “Excretion of radioactivity in feces” value [1, 7] was 0.2% and the “Excretion of radioactivity in urine” value [1, 7] was 84.7%. The “Excretion of radioactivity in feces” value [1, 8] was 20.4%, the “Excretion of radioactivity in urine” value [1, 8] was 78.1% and the Excretion via expiration ([1]; rats, SC or IV 1 mg/kg API-FB, second study) was “minimal”. The “Inhibitory effect in enzyme and receptor binding assays” value [2] was “did not show any significant inhibitory effect”, the “Detectability of API-MA in plasma” value ([3]; 1-month depot 6, 12 or 24 mg, all cases) was “not detectable by 8 weeks postdose” and the “AUC(0-24) as share of AUC(0-tlqc)” value ([3]; 1-month depot 6, 12 or 24 mg, burst phase) was “over 60%”. It also gave an AUC(0-t) ([3]; 6 mg/month, 1-month depot SC 6 mg/month, read-out: AUC (0-24) (converted)) of 79.6 ng·h/mL, an AUC(0-t) ([3]; 6 mg/month, 1-month depot SC 6 mg/month, read-out: AUC (0-29 d) (converted)) of 104 ng·h/mL and an AUC(0-t) ([3]; 6 mg/month, 1-month depot SC 6 mg/month, read-out: AUC (0-tlqc) (converted)) of 119 ng·h/mL. The AUC(0-t) ([3]; 12 mg/month, 1-month depot SC 12 mg/month, read-out: AUC (0-24) (converted)) was 119 ng·h/mL, the AUC(0-t) ([3]; 12 mg/month, 1-month depot SC 12 mg/month, read-out: AUC (0-29 d) (converted)) was 138 ng·h/mL and the AUC(0-t) ([3]; 12 mg/month, 1-month depot SC 12 mg/month, read-out: AUC (0-tlqc) (converted)) was 158 ng·h/mL. It also gave an AUC(0-t) ([3]; 24 mg/month, 1-month depot SC 24 mg/month, read-out: AUC (0-24) (converted)) of 179 ng·h/mL, an AUC(0-t) ([3]; 24 mg/month, 1-month depot SC 24 mg/month, read-out: AUC (0-29 d) (converted)) of 209 ng·h/mL and an AUC(0-t) ([3]; 24 mg/month, 1-month depot SC 24 mg/month, read-out: AUC (0-tlqc) (converted)) of 239 ng·h/mL. It also gave a Cmax ([3]; 1-month depot SC 6 mg/month) of 16.5 ng/mL, a Tmax ([3]; 1-month depot SC 6 mg/month) of 2 h and a Cmax ([3]; 1-month depot SC 12 mg/month) of 14.4 ng/mL. It also gave a Tmax ([3]; 1-month depot SC 12 mg/month) of 2.05 h, a Cmax ([3]; 1-month depot SC 24 mg/month) of 25.5 ng/mL and a Tmax ([3]; 1-month depot SC 24 mg/month) of 2.05 h. It also gave a Tlqc ([3]; 1-month depot SC 6 mg/month) of 42.9 h, a Tlqc ([3]; 1-month depot SC 12 mg/month) of 41.5 h and a Tlqc ([3]; 1-month depot SC 24 mg/month) of 47.2 h.

In the case of `CNC(=N)NCCC[C@H](NC(=O)[C@H](CC(C)C)NC(=O)NNC(=O)[C@H](Cc1ccccc1)NC(=O)[C@@H](NC(=O)[C@H](CC(N)=O)NC(=O)[C@@H]1C[C@@H](O)CN1C(=O)[C@@H](Cc1ccc(O)cc1)NC(C)=O)[C@@H](C)O)C(=O)N[C@@H](Cc1c[nH]c2ccccc12)C(N)=O` [Compound 1, 2-(N-Acetyl-D-tyrosyl-trans-4-hydroxy-L-prolyl-L-asparaginyl-L-threonyl-L-phenylalanyl)-hydrazinocarbonyl-L-leucyl-Nω-methyl-L-arginyl-L-tryptophanamide] (Ac-[dY][Hyp]NTF[azaGly]L[Arg(Me)]W-NH2), the bioavailability [4] is listed as 66.3%.
